From patent US20240415793A1, “Neuroprotective composition comprising pyruvate and citrate” (N.V. Nutricia, priority 2022, published 2024)

System: primary rat neuronal-glial cell cultures
Experiment: Seahorse assay (OCR/ECAR), acute 1 h nutrient pre-incubation, resting or seizure-like conditions
Type: cell-based
Details: 1 mM citrate
Procedure: A Seahorse assay was performed on primary rat neuronal-glial cell cultures to determine the impact of pyruvate and citric acid on glycolytic rates and lactate delivery, mitochondrial respiration and total (glycolytic and mitochondrial) ATP production.
Rat cortical cells were isolated from embryonic day 18 embryos using a combination of enzymatic and mechanical dissociation of brain cortical rat tissue. Immediately after dissociation, the cells were seeded at a density of 500′000 cells per mL in 96-well plates and grown at 37° C. for two weeks from day in vitro (DIV) 0 until DIV14 in Neurobasal medium supplemented with 2% (v/v) B27, 0.8 mM Magnesium (Mg2+), 25 mM glucose and 1% (v/v) Penicillin/Streptomycin. During this time neuronal axons grew out and formed synaptic contacts. In addition, glial cells, foremost astrocytes, grew and formed contacts with neurons. The incubation in 25 mM glucose accelerated the differentiation and network growth of neurons.
From DIV14 until DIV17, the cells were incubated in Neurobasal medium supplemented with 2% (v/v) B27, 0.8 mM Mg2+, 5 mM glucose and 1% (v/v) Penicillin/Streptomycin. The switch from high to low glucose was done to approach the low intracerebral glucose concentration of the human brain and create a more physiological metabolic environment.
The switch from 5 mM to 1 mM glucose matched the glucose concentrations in the human brain. Meanwhile the switch from high (0.8 mM) to low (0.1 mM) Mg^2+ increases the electrical firing frequency of neurons because Mg2+ is an inhibitor of excitatory NMDA-type ionotropic glutamate receptors, which account for most of the neuronal firing in this cell culture model. The increase in neuronal firing caused by incubation in 0.1 mM Mg^2+ increases the energy production of neurons and glial cells as reflected in the increase in basal respiration (FIG. 1B and E). After 1 hour of pre-incubation in the Seahorse medium containing the nutrients, the oxygen consumption rate [OCRs] and extracellular acidification rate [ECARs] of the neuroglial culture were measured in the Seahorse assay.
The oxygen consumption rates (OCRs) and extracellular acidification rates (ECARs) of cells seeded in 96-well plates were monitored in real time at 37° C. in unbuffered Hanks Balanced Salt Solution (HBSS). The OCRs represent foremost mitochondrial respiration, and to a minor extent non-mitochondrial respiration. The ECARs relate foremost to the acidification of the medium with lactate produced through glycolysis and secreted by the cells into the medium (Table 1).
During the Seahorse run, both the OCRs and ECARs were measured simultaneously at baseline and following the injection of compounds by the Seahorse instrument (Table 1). HBSS was supplemented with glucose from the start and no glucose was injected through the Seahorse instruments. Measurements were repeated three times at baseline and three times after each compound injection.
After the initial baseline measurement, oligomycin (OM) was injected. OM blocks mitochondrial ATP synthase (complex V) and therefore decreases mitochondrial respiration. The OCRs after OM injection are due to the mitochondrial proton leak. They enable to determine whether the test nutrients impact the proton leak. The difference in OCRs at baseline and after OM injection is the amount of oxygen used for mitochondrial ATP synthesis at baseline. From this difference in OCR, the mitochondrial ATP production rates are calculated.
After OM, uncoupling agent carbonyl cyanide-p- trifluoromethoxyphenyl-hydrazon [FCCP] was injected which collapses the proton gradient across the inner mitochondrial membrane established during respiration and required for ATP synthesis. The cells attempt to restore the proton gradient following FCCP injection by maximizing respiration. […]

Compound: O=C(O)CC(O)(CC(=O)O)C(=O)O [citrate]
- increase in total (mitochondrial and glycolytic) ATP production (0.1 mM Mg2+ control medium, FIG. 3A): ~60%
- increase in basal mitochondrial respiration (0.1 mM Mg2+ control medium, FIG. 3B): ~40%
- increase in basal glycolytic rates (0.1 mM Mg2+ medium, FIG. 3C): ~20%
